“Also recorded” adds a separate entry of the source.
Experiments:
[1] = Wisconsin Card Sorting Task in the OCD randomized double-blind trial; assay type: in vivo, human; settings: iTBS+DCS (100 mg), baseline vs after 4 weeks of treatment, compared with iTBS+Placebo and Sham-iTBS
Protocol: The efficacy of 100 mg DCS as an adjunctive strategy to iTBS to reduce OCD-related cognitive impairment and/or improve cognition in OCD was tested in a randomized double-blind 4-week study described in the Example above. Participants completed the Wisconsin Card Sorting Task at baseline and after 4 weeks of treatment. The preplanned focus was on the percent perseverative errors as an index of executive function, cognitive flexibility and cognitive control.

[2] = Motor cortex TMS plasticity: stimulus response curve slope after single and repeated spaced iTBS, randomized double-blind placebo-controlled crossover study; assay type: in vivo, human; settings: healthy participants (n=20), +30 and +60 minutes, vs placebo condition
Protocol: Methods: A randomized double-blind placebo-controlled crossover study in healthy participants (n=20) was conducted (NCT05081986). Participants completed the study in two experimental sessions separated. In these experiments, the motor cortex was stimulated twice using TMS intermittent theta burst stimulation (iTBS) with a one-hour interval between interventions. In random order, this was done with placebo or D-cycloserine (100 mg) as adjuvant, and then the converse at least one week later. The participants' surface anatomical markers were registered to a template magnetic resonance brain image using Neuronavigation software (ANT Neuro, Germany) to permit neuronavigation and reliable targeting throughout the experiment. Transcranial magnetic stimulation involved a MagPro X100 system with Cool-B70 figure-eight coil (MagVenture, Denmark). The iTBS protocol consisted of 20 trains of bursts of 3-pulses at 50 Hz, repeated at 5 Hz with an 8 second inter-train interval at 80% RMT. Motor evoked potentials (MEPs) from the first-dorsal interosseous muscle were sampled to describe stimulus response curves using CED Signal (Cambridge, England) before and after iTBS. […] EMG data were analyzed offline using MATLAB via custom written scripts as previously described^123. […]

Question: What does the source list for `N[C@@H]1CON=C1O` [DCS, D-cycloserine]?
Answer: percentage of perseverative errors (Wisconsin Card Sorting Task) [1]: significant reductions in the percentage of perseverative errors; also recorded: decrease in the percent perseverative errors; change in stimulus response curve (SRC) slope after first (single) iTBS ([2]; DCS 100 mg as adjuvant to iTBS of motor cortex): stable after a single iTBS; also recorded: the initial SRC shift at +30 minutes remains stable at +60 minutes; change in stimulus response curve (SRC) slope after second (repeated spaced) iTBS ([2]; DCS 100 mg, second iTBS 60 minutes after the first): compound with spaced repeated iTBS; also recorded: a further shift in SRC slope in the DCS condition at +30 minutes that was sustained at +60 minutes

Reference: patent US20240415816A1, “ADJUNCTIVE D-CYCLOSERINE AUGMENTATION OF TRANSCRANIAL MAGNETIC STIMULATION (TMS) THERAPY FOR OBSESSIVE COMPULSIVE DISORDER” (MCGRX CORP., priority 2021, published 2024)
